We go through three compounds from patent US20160113960A1, “TOPICAL PREPARATIONS COMPRISING HYALURONIC ACID, VERBASCOSIDE AND GLYCEROPHOSPHOINOSITOL” (ALTERGON S.A., priority 2013, published 2016).

A short description of data set [1]: spectrophotometric test with 2,2-diphenyl-1-picrylhydrazyl (DPPH), radical scavenging activity. The format is biochemical. Particulars: for radical scavenging activity (in words): DPPH test, summary of Tables 1 and 2. The procedure:
Evidence of the radical scavenging activity of the main ingredients of the formulations prepared, VB, HANa, GPI, were obtained with in vitro tests.
The anti-radical activity of VB alone and in combination with HANa and GPI was analyzed by spectrophotometric test with 2,2-diphenyl-1-picrylhydrazyl (DPPH). The samples were prepared respecting the proportions provided in the formulation.
(In general: DPPH is a stable violet radical that fades when it is reduced.)

Data set [2] can be described thus: titre of components in the muco-adhesive solution on storage at room temperature. It is filed as physicochemical.
Data set [3] in a line: storage stability of verbascoside with and without water. The format is physicochemical. The source says:
Therefore, in a more preferred embodiment, the ternary association of the invention is formulated in dry form or with liquid or semi-solid anhydrous ingredients. If the final formulation requires one or more aqueous ingredients, verbascoside is preferably packaged separately in conditions of absence of water (or in the dry state or with semi-solid/liquid anhydrous ingredients) and stored in that form; a preferred semi-solid form is represented by glycerogel, or gelled semi-solid and non hydrated forms with a glycerin base; upon use, verbascoside is combined with the aqueous components, obtaining the final aqueous formulation, ready for administration. The separate packaging of the above ingredients is achievable by generally known means, e.g. double chamber bags, twin-bag double chamber dispensers, etc.

The target in data set [4] is T1, iNOS (inducible nitric oxide synthase) (Homo sapiens, UniProt P35228).
T1 construct: human THP-1 leukemia cells stimulated with pro-inflammatory stimuli (e.g. LPS and IFN-γ) in which the activity of iNOS is overexpressed; endogenous in cells; host or cells: human THP-1 leukemia cells stimulated with LPS and IFN-γ
The settings on record: THP-1 cells stimulated with LPS and IFN-γ; cited from earlier work.

The subject of data set [5] is inflammatory chemokines such as GM-GCSF, IL-8, IP-10 and MCP-1. The settings on record: human keratinocytes stimulated with TNFα or IFN-γ; cited from earlier work.
Another data set has as its system periodontitis model. Particulars: rats, cited from earlier work.
The mark [6] stands for this setting: muco-adhesive solution of Example 6.
[7] abbreviates: muco-adhesive solution of Example 7, solution pH 4.4, viscosity 145 mPas s.
The mark [8] stands for this setting: muco-adhesive solution of Example 8, solution pH 4.4, viscosity 60 mPas s.
[9] abbreviates: muco-adhesive solution of Example 9, iota carrageenan solution, pH 4.3.

`O=P(O)(OC[C@H](O)CO)OC1[C@H](O)[C@H](O)C(O)[C@H](O)[C@H]1O` (stereo partly drawn) [GPI, Inositol glycerophosphate]: in data set [1], the “radical scavenging activity (in words)” value is reported as “essentially showed no activity”. Also, the “Radical scavenging activity (%)” value in data set [1] (concentration 78 mg/L) is recorded as 1%. Moreover, the entries for the “% titre at 30 days at room temperature” value in data set [2] (setting [6]) and in data set [2] (setting [9]) were 98.2% and 100.8%, respectively. In addition, the Initial % titre in data set [2] (setting [6]) is listed as 99.5%; in data set [2] (setting [7]), 99.63%; in data set [2] (setting [8]), 98.17%; in data set [2] (setting [9]), 100.6%. Further, the “% titre at 10 days at room temperature” value is on record as 102.88% in data set [2] (setting [7]) and 102.24% in data set [2] (setting [8]).
As for `C[C@@H]1O[C@@H](O[C@@H]2[C@@H](O)[C@H](OCCc3ccc(O)c(O)c3)O[C@H](CO)[C@H]2OC(=O)/C=C/c2ccc(O)c(O)c2)[C@H](O)[C@H](O)[C@H]1O` [VB, Verbascoside], the “radical scavenging activity (in words)” value in data set [1] is reported as “clear”. Also, the “Radical scavenging activity (%)” value in data set [1] (VB concentration 3.3 μM (2.1 mg/L)) was 15%; in data set [1] (VB concentration 6.6 μM (4.1 mg/L)) it was 24%; in data set [1] (VB concentration 13.2 μM (8.3 mg/L)) it was 42%; in data set [1] (VB concentration 26.5 μM (16.6 mg/L)) it was 76%; in data set [1] (VB concentration 53 μM (33.1 mg/L)) it was 95%; in data set [1] (concentration 15.6 mg/L) it was 74%. Also, in data set [2] (after extemporaneous incorporation with the aqueous component, room temperature), the “time for which a high titre is maintained” value was “at least 30 days”. Also, the “% titre at 30 days at room temperature” value amounted to 92.5% in data set [2] (setting [6]) and 92.9% in data set [2] (setting [9]). The Initial % titre in data set [2] (setting [6]) was determined as 99.6%; in data set [2] (setting [7]), 101.68%; in data set [2] (setting [8]), 102.2%; in data set [2] (setting [9]) it was 101.7%. Also, the “% titre at 10 days at room temperature” value was 98.71% in data set [2] (setting [7]) and 98.55% in data set [2] (setting [8]). The stability entry in data set [3] (in an aqueous medium) is listed as “particularly labile”. Besides, the stability upon storage result in data set [3] (stored in the absence of water) is on record as “particularly stable”. The “expression and activity of iNOS and superoxide radicals” value in data set [4] is “significant decrease”. In addition, the “inflammatory chemokines such as GM-GCSF, IL-8, IP-10 and MCP-1” value in data set [5] was “reduces in a dose-dependent manner”. For the same compound, the parameters of inflammation result in the data set on periodontitis model (oral administration 2 mg/kg/day for 8 days) is reported as “significantly reduces”. The anti-inflammatory effect result with periodontitis model (periodontitis model) is “marked anti-inflammatory effect”.
With Hyaluronic acid sodium salt [HANa], the “radical scavenging activity (in words)” value in data set [1] is “essentially showed no activity”. Besides, in data set [1] (concentration 62.4 mg/L), the “Radical scavenging activity (%)” value turned out to be 1%. Moreover, the “% titre at 30 days at room temperature” value in data set [2] (setting [6]) is on record as 100.7%; in data set [2] (setting [9]), 114.9%. Also, the Initial % titre was 101.3% in data set [2] (setting [6]), 99.32% in data set [2] (setting [7]), 98.48% in data set [2] (setting [8]) and 114.6% in data set [2] (setting [9]). The “% titre at 10 days at room temperature” value in data set [2] (setting [7]) and in data set [2] (setting [8]) was 96.26% in each case.
